Target: T1, catalytic domain of human Bub1 (amino acids 704-1085) (Homo sapiens, UniProt O43683)
T1 construct: catalytic domain of human Bub1 (amino acids 704-1085); His6 (N); made in house; host or cells: Hi5 insect cells
Test: Bub1 kinase assay (TR-FRET)
Format: biochemical
Conditions: TR-FRET; ATP 10 μM, peptide substrate 1 μM; 60 min at 22° C.; average or median if tested more than once; read-out: Inhibition of Bub1 kinase IC50
Source text: Bub1-inhibitory activities of compounds described in the present invention were quantified using a time-resolved fluorescence energy transfer (TR-FRET) kinase assay which measures phosphorylation of the synthetic peptide Biotin-Ahx-VLLPKKSFAEPG (C-terminus in amide form), purchased from e.g. Biosyntan (Berlin, Germany) by the (recombinant) catalytic domain of human Bub1 (amino acids 704-1085), expressed in Hi5 insect cells with an N-terminal His6-tag and purified by affinity—(Ni-NTA) and size exclusion chromatography.
In a typical assay 11 different concentrations of each compound (0.1 nM, 0.33 nM, 1.1 nM, 3.8 nM, 13 nM, 44 nM, 0.15 μM, 0.51 μM, 1.7 μM, 5.9 μM and 20 μM) were tested in duplicate within the same microtiter plate. To this end, 100-fold concentrated compound solutions (in DMSO) were previously prepared by serial dilution (1:3.4) of 2 mM stocks in a clear low volume 384-well source microtiter plate (Greiner Bio-One, Frickenhausen, Germany), from which 50 nl of compounds were transferred into a black low volume test microtiter plate from the same supplier. Subsequently, 2 μL of Bub1 (the final concentration of Bub1 was adjusted depending on the activity of the enzyme lot in order to be within the linear dynamic range of the assay: typically ˜200 ng/mL were used) in aqueous assay buffer [50 mM Tris/HCl pH 7.5, 10 mM magnesium chloride (MgCl2), 200 mM potassium chloride (KCl), 1.0 mM dithiothreitol (DTT), 0.1 mM sodium ortho-vanadate, 1% (v/v) glycerol, 0.01% (w/v) bovine serum albumine (BSA), 0.005% (v/v) Trition X-100 (Sigma), 1× Complete EDTA-free protease inhibitor mixture (Roche)] were added to the compounds in the test plate and the mixture was incubated for 15 min at 22° C. to allow pre-equilibration of the putative enzyme-inhibitor complexes before the start of the kinase reaction, which was initiated by the addition of 3 μL 1.67-fold concentrated solution (in assay buffer) of adenosine-tri-phosphate (ATP, 10 μM final concentration) and peptide substrate (1 μM final concentration). The resulting mixture (5 μL final volume) was incubated at 22° C. during 60 min., and the reaction was stopped by the addition of 5 μL of an aqueous EDTA-solution (50 mM EDTA, in 100 mM HEPES pH 7.5 and 0.2% (w/v) bovine serum albumin) which also contained the TR-FRET detection reagents (0.2 μM streptavidin-XL665 [Cisbio Bioassays, Codolet, France] and 1 nM anti-phospho-Serine antibody [Merck Millipore, cat. #35-002] and 0.4 nM LANCE EU-W1024 labeled anti-mouse IgG antibody [Perkin-Elmer, product no. AD0077, alternatively a Terbium-cryptate-labeled anti-mouse IgG antibody from Cisbio Bioassays can be used]). The stopped reaction mixture was further incubated 1 h at 22° C. in order to allow the formation of complexes between peptides and detection reagents. Subsequently, the amount of product was evaluated by measurement of the resonance energy transfer from the Eu-chelate-antibody complex recognizing the Phosphoserine residue to the streptavidin-XL665 bound to the biotin moiety of the peptide. To this end, the fluorescence emissions at 620 nm and 665 nm after excitation at 330-350 nm were measured in a TR-FRET plate reader, e.g. a Rubystar or Pherastar (both from BMG Labtechnologies, Offenburg, Germany) or a Viewlux (Perkin-Elmer) and the ratio of the emissions (665 nm/[…]) was taken as indicator for the amount of phosphorylated substrate. The data were normalised using two sets of control wells for high—(=enzyme reaction without inhibitor=0%=Minimum inhibition) and low—(=all assay components without enzyme=100%=Maximum inhibition) Bub1 activity. IC50 values were calculated by fitting the normalized inhibition data to a 4-parameter logistic equation (Minimum, Maximum, IC50, Hill; Y=Max+(Min−Max)/(1+(X/IC50)Hill)).

T1 sequence (O43683 704-1085): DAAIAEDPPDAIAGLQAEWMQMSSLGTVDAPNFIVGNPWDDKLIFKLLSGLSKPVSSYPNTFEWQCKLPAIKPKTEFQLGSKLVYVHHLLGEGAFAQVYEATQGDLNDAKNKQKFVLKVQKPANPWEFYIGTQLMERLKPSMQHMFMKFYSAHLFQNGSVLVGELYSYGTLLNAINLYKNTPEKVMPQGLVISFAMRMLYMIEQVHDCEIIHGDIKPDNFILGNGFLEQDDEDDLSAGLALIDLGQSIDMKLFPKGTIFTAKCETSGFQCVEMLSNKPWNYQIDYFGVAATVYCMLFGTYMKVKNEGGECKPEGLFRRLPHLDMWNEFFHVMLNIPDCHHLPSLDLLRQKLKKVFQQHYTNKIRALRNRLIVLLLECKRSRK

| Compound | IC50 [nM] |
| --- | --- |
| CC(=O)Nc1cc(-c2[nH]c3c(c2Nc2ccccc2)C(=O)CN(C(=O)CCC(C)(C)C)C3)ccn1 [Example 179, N-{4-[3-Anilino-6-(4,4-dimethylpentanoyl)-4-oxo-4,5,6,7-tetrahydro-1H-pyrrolo[2,3-c]pyridin-2-yl]pyridin-2-yl}acetamide] | 63 |
| N#CCN1CC(=O)c2c([nH]c(-c3ccncc3)c2Nc2ccccc2)C1 [Example 98, [4-Oxo-3-(phenylamino)-2-(pyridin-4-yl)-1,4,5,7-tetrahydro-6H-pyrolo[2,3-c]pyridin-6-yl]acetonitrile] | 16 |
| CC(=O)N1CC(=O)c2c([nH]c(-c3ccnc(C)n3)c2Nc2ccccc2)C1 [Example 26, 6-Acetyl-2-(2-methylpyrimidin-4-yl)-3-(phenylamino)-1,5,6,7-tetrahydro-4H-pyrrolo[2,3-c]pyridin-4-one] | 97 |
| CC(C)(C)OC(=O)N1CC(=O)c2c([nH]c(-c3ccnc(NC(=O)c4ccc(F)cc4)c3)c2Nc2ccccc2)C1 [Example 133, tert-Butyl 3-anilino-2-{2-[(4-fluorobenzoyl)amino]pyridin-4-yl}-4-oxo-1,4,5,7-tetrahydro-6H-pyrrolo[2,3-c]pyridine-6-carboxylate] | 28 |
| CN(C)S(=O)(=O)N1CC(=O)c2c([nH]c(-c3ccncc3OCC3CC3)c2Nc2ccccc2)C1 [Example 282, 2-[3-(Cyclopropylmethoxy)pyridin-4-yl]-N,N-dimethyl-4-oxo-3-(phenylamino)-1 4,5,7-tetrahydro-6H-pyrrolo[2,3-c]pyridine-6-sulfonamide] | 12 |
| O=C1CNCc2[nH]c(-c3ccnc(NC(=O)C4(F)CC4)c3)c(Nc3ccccc3)c21 [Example 132, N-[4-(3-anilino-4-oxo-4,5,6,7-tetrahydro-1H-pyrrolo[2,3-c]pyridin-2-yl)pyridin-2-yl]-1-fluorocyclopropanecarboxamide] | 299 |
| COCC(=O)Nc1cc(-c2[nH]c3c(c2Nc2ccccc2)C(=O)COC3)ccn1 [Example 45, 2-Methoxy-N-{4-[4-oxo-3-(phenylamino)-1,4,5,7-tetrahydropyrano[3,4-b]pyrrol-2-yl]pyridin-2-yl}acetamide] | 59 |
| O=C(Nc1cc(-c2[nH]c3c(c2Nc2ccccc2)C(=O)CNC3)ccn1)c1cnn[nH]1 [Example 275, N-4-[4-Oxo-3-(phenylamino)-4,5,6,7-tetrahydro-1H-pyrrolo[2,3-c]pyridin-2-yl]pyridin-2-yl-1H-1,2,3-triazole-5-carboxamide] | 113 |
| CNC(=O)N1CC(=O)c2c([nH]c(-c3ccncc3OCC(F)F)c2Nc2ccccc2)C1 [Example 237, 2-[3-(2,2-Difluoroethoxy)pyridin-4-yl]-N-methyl-4-oxo-3-(phenylamino)-1,4,5,7-tetrahydro-6H-pyrrolo[2,3-c]pyridine-6-carboxamide] | 18 |
| O=C1CN(Cc2ccccc2)Cc2[nH]c(-c3ccncc3)c(Nc3ccccc3)c21 [Example 1, 6-Benzyl-3-(phenylamino)-2-(pyridin-4-yl)-1,5,6,7-tetrahydro-4H-pyrrolo[2,3-c]pyridin-4-one] | 67 |
| CSCCC(=O)N1CC(=O)c2c([nH]c(-c3ccnc(NC(C)=O)c3)c2Nc2ccccc2)C1 [Example 192] | 30 |
| Cc1cc(F)ccc1C(=O)Nc1cc(-c2[nH]c3c(c2Nc2ccccc2)C(=O)CN(C(=O)OC(C)(C)C)C3)ccn1 [Example 263, tert-Butyl 2-2-[(4-fluoro-2-methylbenzoyl)amino]pyridin-4-yl-4-oxo-3-(phenylamino)-1,4,5,7-tetrahydro-6H-pyrrolo[2,3-c]pyridine-6-carboxylate] | 38 |
| CNC(=O)N1CC(=O)c2c([nH]c(-c3ccncc3OCC(F)(F)F)c2Nc2ccccc2)C1 [Example 243, N-Methyl-44-oxo-3-(phenylamino)-2-[3-(2,2,2-trifluoroethoxy)pyridin-4-yl]-1,4,5,7-tetrahydro-6H-pyrrolo[2,3-c]pyridine-6-carboxamide] | 55 |

The next compounds have a lower IC50 than those just listed; values first:

| IC50 [nM] | Compound |
| --- | --- |
| 11 | CC(C)OC(=O)N1CC(=O)c2c([nH]c(-c3ccncc3)c2Nc2ccccc2)C1 [Example 77, Propan-2-yl 4-oxo-3-(phenylamino)-2-(pyridin-4-yl)-1,4,5,7-tetrahydro-6H-pyrrolo[2,3-c]pyridine-6-carboxylate] |
| 8 | CC(C)(C)OC(=O)N1CC(=O)c2c([nH]c(-c3ccncc3F)c2Nc2ccccc2)C1 [Example 11, tert-Butyl 2-(3-fluoropyridin-4-yl)-4-oxo-3-(phenylamino)-1,4,5,7-tetrahydro-6H-pyrrolo[2,3-c]pyridine-6-carboxylate] |
| 8 | COC(=O)N1CC(=O)c2c([nH]c(-c3ccnc(NC(=O)C4(F)CC4)c3)c2Nc2ccccc2)C1 [Example 147, Methyl 3-anilino-2-{2-([(1-fluorocyclopropyl)carbonyl]amino}pyridin-4-yl)-4-oxo-1,4,5,7-tetrahydro-6H-pyrrolo[2,3-c]pyridine-6-carboxylate] |
| 7 | COC(=O)N1CC(=O)c2c([nH]c(-c3ccnc(NC(=O)[C@@H]4C[C@@H]4F)c3)c2Nc2ccccc2)C1 (relative stereo) [Example 139, Methyl 3-anilino-2-[2-({[rel-(1S,2S)-2-fluorocyclopropyl]carbonyl}amino)pyridin-4-yl]-4-oxo-1,4,5,7-tetrahydro-6H-pyrrolo[2,3-c]pyridine-6-carboxylate] |
| 7 | CC(=O)Nc1cc(-c2[nH]c3c(c2Nc2ccccc2)C(=O)CN(C(=O)N2CCCC2)C3)ccn1 [Example 126, N-{4-[3-Anilino-4-oxo-6-(pyrrolidin-1-ylcarbonyl)-4,5,6,7-tetrahydro-1H-pyrrolo[2,3-c]pyridin-2-yl]pyridin-2-yl}acetamide] |
| 6 | CCN(CC)C(=O)N1CC(=O)c2c([nH]c(-c3ccnc(NC(C)=O)c3)c2Nc2ccccc2)C1 [Example 167, 2-(2-Acetamidopyridin-4-yl)-3-anilino-N,N-diethyl-4-oxo-1,4,5,7-tetrahydro-6H-pyrrolo[2,3-c]pyridine-6-carboxamide] |
| 6 | COc1ccc(C(=O)Nc2cc(-c3[nH]c4c(c3Nc3ccccc3)C(=O)CN(S(=O)(=O)N(C)C)C4)ccn2)cc1F [Example 289, N-4-[6-(Dimethylsulfamoyl)-4-oxo-3-(phenylamino)-4,5,6,7-tetrahydr-1H-pyrrolo[2,3-c]pyridin-2-yl]pyridin-2-yl-3-fluoro-4-methoxybenzamide] |
| 5 | CCNC(=O)N1CC(=O)c2c([nH]c(-c3ccnc(NC(=O)[C@@H]4C[C@@H]4F)c3)c2Nc2ccccc2)C1 [Example 208, N-Ethyl-2-[2-([(1S,2S)-2-fluorocyclopropyl]carbonylamino)pyridin-4-yl]-4-oxo-3-(phenylamino)-1,4,5,7-tetrahydro-6H-pyrrolo[2,3-c]pyridine-6-carboxamide] |
| 5 | CC(=O)Nc1cc(-c2[nH]c3c(c2Nc2ccccc2)C(=O)CN(S(=O)(=O)C2CC2)C3)ccn1 [Example 172] |
| 4 | O=C(Nc1cc(-c2[nH]c3c(c2Nc2ccccc2)C(=O)CN(S(=O)(=O)c2cnc[nH]2)C3)ccn1)c1ccc(F)cc1 [Example 160, N-{4-[3-Anilino-6-(1H-imidazol-5-ylsulfonyl)-4-oxo-4,5,6,7-tetrahydro-1H-pyrrolo[2,3-c]pyridin-2-yl]pyridin-2-yl}-4-fluorobenzamide] |

Source: patent US20200216439A1, “HETERO-1,5,6,7-TETRAHYDRO-4H-INDOL-4-ONES” (BAYER PHARMA AKTIENGESELLSCHAFT, priority 2015, published 2020)
